This note sets out measurements from patent US9393314B2, “Meloxicam eye drops and preparation method and use thereof” (KANGYA OF NINGXIA PHARMACEUTICALS CO., LTD., priority 2013, dated 2016).

Each structure is given as a SMILES string. Marks after values point to notes of the source that are not given here.

This test has as its system rabbit eyes (aqueous humor protein concentration). Description: Rabbit eye anterior chamber puncture test. It counts as in vivo. On the procedure:
Thirty-six rabbits without ocular abnormalities were taken and randomly divided into six groups, with six rabbits in each group. The groups are respectively saline group, medium control group, positive control group of diclofenac sodium, 0.025%, 0.05% and 0.1% meloxicam eye drops groups. Then 0.05 mL drug solution was dropped into the rabbit eyes for experiment. The eyes were forced to be closed for 10 seconds; 45 minutes later, under local anesthesia with 0.2 mL of 1% tetracaine drops, puncturing was performed with 41/2 needle from the edge of the limbus to take 0.2 mL of primary aqueous humor; 90 minutes later, puncturing was performed again to take the secondary aqueous humor. Those two batches of aqueous humor were diluted 2-fold and 50-fold respectively. Then 0.05 mL of distilled water, aqueous humor dilution and protein standard solution were taken, 3 mL Coomassie brilliant blue staining solution was added thereto respectively, after 10 minutes of reaction, their absorbance values at 595 nm were measured, and the protein content was calculated according to the following formula: [formula]

As to `O=C(O)Cc1ccccc1Nc1c(Cl)cccc1Cl` [Diclofenac sodium], the “Protein concentration in aqueous humor, Primary” value (0.05 ml/eye, puncture 45 minutes after dosing, x ± s, n 6) came to 0.52 ± 0.19 mg/mL. Also, for the setting “0.05 ml/eye, second puncture 90 minutes later, x ± s, n 6”, the “Protein concentration in aqueous humor, Secondary” value is 18.05 ± 3.01**^ΔΔ mg/ml. Besides, where the note is “vs saline and medium control groups”, the “inhibition of the increase in aqueous humor protein concentration caused by puncture of anterior chamber” value is “significantly inhibit”.
